Here are results for one molecule from patent US7132447B2, “Substance FKI-1083 and process for producing the same” (The Kitasato Institute, priority 2001, dated 2006).

Values after ≈ are worked out from the molar mass of the structure shown.

Experiment [1] has as its system Pseudomonas aeruginosa IF03080. Briefly: MIC by agar plate dilution method on nutrient agar medium. In kind it is cell-based.
Experiment [2] deals with Mycobacterium smegmatis ATCC607. Described as above. In kind it is cell-based. The settings on record: Mycolicibacterium smegmatis.
The next experiment concerns Mucor racemosus IF04581. The description is as above. In kind it is cell-based.
For another experiment, the system named is Caenorhabditis elegans. Briefly: Nematocidal activity, movement observed under microscope in 96 well plate. In kind it is in vivo. How it is done: (§1) Methanol solution of FKI-1083 substance of the present invention was added to a 96 well plate (Corning Inc., the U.S.). […] A test medium (lecithin 0.01%, sodium hydrogen carbonate 7.5 mM, potassium chloride 7.5 mM, calcium chloride dihydrate 7.5 mM, and magnesium sulfate heptahydrate 7.5 mM) 250 μl was added thereto and shaken for 15 minutes. Approximately 10 Caenorhabditis elegans cultured on the agar medium for nematode growth [a medium in which E. coli was cultured on a medium consisting of bactoagar (DIFCO Inc., the U.S.) 1.7%, bactopeptone (DIFCO Inc., the U.S.) 0.5%, yeast extract (DIFCO Inc., the U.S.) 1.0%, sodium chloride 0.3%, cholesterol 0.0005%, calcium chloride 0.007%, magnesium sulfate 0.03%, dipotassium hydrogen phosphate 0.34%, and potassium dihydrogen phosphate 0.11%] were added thereto. Separately, a buffer solution 50 μl containing several numbers of nauplius larvae of Artemia salina hatched in the buffer (Tris 0.24%, sodium chloride 2.57%, magnesium chloride 0.47%, potassium chloride 0.07%, sodium carbonate 0.02%, magnesium sulfate 0.64% and calcium chloride 0.11%, pH 7.1) was added. Conditions of these nematode and arthropod were observed under microscope. […] Consequently, FKI-1083 substance of the present invention is useful as anthelmintic and insecticide.

In experiment [3] the test system is Escherichia coli NIHJ JC-2 (IF012734). Briefly: MIC by agar plate dilution method on nutrient agar medium. In kind it is cell-based. The settings on record: NIHJJC2.
Another experiment deals with NADH-fumarate reductase. Briefly: NADH-fumarate reductase inhibitory activity, Ascaris suum muscle mitochondria fraction, NADH absorption at 340 nm. In kind it is biochemical. The settings on record: 37° C., pH 7.0, read-out: concentration showing 50% inhibition of NADH-fumarate reductase activity. The procedure: Ascaris suum muscle was homogenized in 120 mM sodium phosphate solution (pH 7.0) and centrifuged at 3000×g for 10 minutes to collect the supernatant solution. The solution was further centrifuged at 10000×g for 20 minutes to collect the precipitate. The precipitate was suspended in 120 mM sodium phosphate solution (pH 7.0) to prepare mitochondria fraction. 50% dimethyl sulfoxide solution of FKI-1083 substance 10 μl was added to 96 well microplate. 120 mM sodium phosphate solution (pH 7.0) 80 μl containing 0.35 mM NADH and 7.2 mM disodium fumarate was added thereto and preincubated at 37° C. for 5 minutes in the microplate reader ELX808 (Bio-Tek Industries Inc., the U.S.). Mitochondria fraction of Ascaris suum muscle 10 μl (0.3 mg protein) was added thereto, incubated at 37° C. for 10 minutes and measured absorption of NADH at 340 nm in every 15 seconds. A gradient of the decrease in absorption at 340 nm was assayed as NADH-fumarate reductase activity. […] Consequently, FKI-1083 substance can be expected as a composition for treatment or prevention of helminthiasis.

The subject of experiment [4] is Xanthomonas campestris pv. oryzae KB88. Briefly: microbe, parasite or virus in culture. In kind it is cell-based.
Experiment [5] deals with Bacillus subtilis ATCC6633. Briefly: MIC by agar plate dilution method on nutrient agar medium. The format is cell-based.
The subject of the next experiment is Candida albicans KF1. The experiment is described as above. The format is cell-based.
Experiment [6] concerns Aspergillus niger ATCC6275. The description is as above. The format is cell-based.
Experiment [7] deals with Saccharomyces cerevisiae KF26. The experiment is described as above. The format is cell-based. An excerpt:
Minimum inhibitory concentration (MIC) of FKI-1083 substance of the present invention against various microorganisms on nutrient agar medium by agar plate dilution method is shown in Table 3.

The test system of experiment [8] is Micrococcus luteus ATCC9341. Described as above. The format is cell-based.
For a further experiment, the system named is Artemia salina. Briefly: Anthropodicidal activity, movement of nauplius larvae observed under microscope in 96 well plate. The format is in vivo. How it is done:
as §1

Experiment [9] concerns Staphylococcus aureus ATCC6538p. Put plainly: MIC by agar plate dilution method on nutrient agar medium. In kind it is cell-based.
For another experiment, the system named is Escherichia coli NIHJ. The description is as above. The format is cell-based.

For `CCCCCCCC/C(C)=C/Cc1oc(OC)c(C)c(=O)c1C` [FKI-1083 substance], the MIC was greater than 100 µg/mL in experiment [1]; 12.5 µg/mL (≈ 39 µM) in [2]; greater than 100 µg/mL against Mucor racemosus IF04581; greater than 100 µg/mL in [3]; greater than 100 µg/mL in experiment [4]; 6.25 µg/mL (≈ 19.5 µM) in [5]. Further, the MIC in the experiment on Candida albicans KF1 was greater than 100 µg/mL; in experiment [6], greater than 100 µg/mL; in experiment [7], greater than 100 µg/mL; in [8], 6.25 µg/mL (≈ 19.5 µM); in [9], 6.25 µg/mL (≈ 19.5 µM); against Escherichia coli NIHJ it was greater than 100 µg/mL. Also, the “concentration at which movement was inhibited” value was 20 µg/mL with Caenorhabditis elegans and 2 µg/mL in the experiment on Artemia salina. Also, the IC50 at NADH-fumarate reductase came to 4.1 nM.
